Source: patent publication US5863931A, “Amidino derivatives and their use as nitric oxide synthase inhibitors” (priority 1991, dated 1999)
Read-outs that look alike come from different tables or passages of the source.

How the values were obtained:
[1] = target: T1, Inducible NO synthase (Rattus norvegicus, UniProt Q06518); assay: Inducible NO synthase inhibition (method essentially according to Rees et al, Biochem. Biophys. Res. Comm. 1990; rat aortic rings, LPS-induced loss of tone); type: cell-based; conditions: for EC50 ratio: constitutive EC50 / inducible EC50
T1 construct: activity of the inducible enzyme in the vascular smooth muscle cells; from tissue; host or cells: rat aortic rings, LPS-induced (vascular smooth muscle)
Description: (§1) The activity of a compound as an inhibitor of the enzyme NO synthase can be determined by an assay in which a macrophage cell line (J774) is induced to express NO synthase with lipopolysaccharide (LPS) and interferon gamma and NO generated is measured by its reaction with haemoglobin or as nitrite. […] Selectivity can be determined by use of an assay based on rat aortic rings in vitro. The basal tone of the tissue is used as an indication of the activity of the constitutive NO synthase whereas LPS-induced loss of tone mediated by NO is used as an indication of the activity of the inducible enzyme in the vascular smooth muscle cells.
Inducible NO synthase--method essentially according to Rees et al, Biochem. Biophys. Res. Comm., 173, 541-547 (1990).

[2] = target: T2, Constitutive NO synthase (Rattus norvegicus, UniProt Q62600); assay: Constitutive NO synthase inhibition (method of Rees et al, Br. J. Pharmacol. 1990; rat aortic rings in vitro, basal tone); type: cell-based
T2 construct: The basal tone of the tissue is used as an indication of the activity of the constitutive NO synthase; from tissue; host or cells: rat aortic rings
Description: as §1, with “cells. […] Constitutive NO synthase--method of Rees et al, Br. J. Pharmacol., 101, 746-752 (1990)” for “cells.”

[3] = system: constitutive and the inducible NO synthase; conditions: inhibits both constitutive and inducible NO synthase; cited from earlier work
[4] = inducible NO synthase, read-out: NO Synthase Activity Inducible EC50

| EC50 ratio [1] | EC50 [1, 4] [nM] | EC50 [2] [nM] | SMILES | EC50 [1] [nM] | selectivity between constitutive and inducible NO synthase [3] |
| --- | --- | --- | --- | --- | --- |
| 9.7 | 320 | 3100 | CC(=N)NC/C=C/CC(N)C(=O)O.Cl (racemic) [Example 3, (±)-E-2-Amino-6-(1-Iminoethylamino)-hex-4-enoic acid hydrochloride] |  |  |
| 36.4 | 140 | 5100 | CC(=N)NCCC[C@H](N)C(=O)O.Cl [Example 1, (S)-N^5-(1-Iminoethyl)ornithine hydrochloride] |  |  |
| 33.4 | 130 | 4300 | CC(=N)NCCSC[C@@H](N)C(=O)O.Cl [Example 4, (S)-S-2-(1-Iminoethylamino)ethylcysteine hydrochloride] |  |  |
|  |  |  | CN=C(N)NCCC[C@H](N)C(=O)O [L-NMMA, L-N-monomethyl-arginine] |  | non-selective |

| SMILES | EC50 ratio [1] | EC50 [1, 4] [nM] | EC50 [2] [nM] | EC50 [1] [nM] | selectivity between constitutive and inducible NO synthase [3] |
| --- | --- | --- | --- | --- | --- |
| CC(=N)NCCCC[C@H](N)C(=O)O.Cl [Example 2, (S)-N^6-(1-Iminoethyl) lysine hydrochloride] | 43.1 |  | 6900 | 160 |  |
